Measured values from patent US20100196311A1, “METHODS AND COMPOSITIONS CONTAINING mTOR INHIBITORS FOR ENHANCING IMMUNE RESPONSES” (priority 2009, published 2010).

B1: IL-12: interleukin-12, cytokine (signal 3) (protein, UniProt P43431 23-215; P43432 23-335, looked up)
Interleukin-12 subunit alpha: RVIPVSGPARCLSQSRNLLKTTDDMVKTAREKLKHYSCTAEDIDHEDITRDQTSTLKTCLPLELHKNESCLATRETSSTTRGSCLPPQKTSLMMTLCLGSIYEDLKMYQTEFQAINAALQNHNHQQIILDKGMLVAIDELMQSLNHNGETLRQKPPVGEADPYRVKMKLCILLHAFSTRVVTINRVMGYLSSA
Interleukin-12 subunit beta: MWELEKDVYVVEVDWTPDAPGETVNLTCDTPEEDDITWTSDQRHGVIGSGKTLTITVKEFLDAGQYTCHKGGETLSHSHLLLHKKENGIWSTEILKNFKNKTFLKCEAPNYSGRFTCSWLVQRNMDLKFNIKSSSSSPDSRAVTCGMASLSAEKVTLDQRDYEKYSVSCQEDVTCPTAEETLPIELALEARQQNKYENYSTSFFIRDIIKPDPPKNLQMKPLKNSQVEVSWEYPDSWSTPHSYFSLKFFVRIQRKKEKMKETEEGCNQKGAFLVEKTSTEVQCKGGNVCVQAQDRYYNSSCSKWACVPCRVRS

What was measured:
OT-I cells = assay: Type I effector functions (IFN-γ, CTL activity, Granzyme B) of OT-I cells, primary and secondary phase; assay type: cell-based, mouse
Procedure: FIG. 3. Sustained mTOR Activity Is Essential for Heritable Type I Effector Differentiation of CD8^+ T Cells. […] (D and E) OT-I cells were stimulated with Ag+B7.1 (±) IL-12 and rapamycin was added 12 hr after stimulation to evaluate cells for (D) S6K phosphorylation at 48 hr and (E) IFN-γ production at the primary and secondary phase. Experiments shown are representative of at least three (A and B) and two (C-E) independent experiments with similar outcomes. (Data are presented as mean±SEM.)
Stimulation of OT-1 Cells. Naive OT-I cells were stimulated with latex microspheres expressing H-2K^b/ovalbumin antigen and B7.1 according to known techniques. Naive OT-II cells were stimulated with anti-CD3-/anti-CD28-coated latex beads. In some experiments, the cell line derived from embryonic fibroblasts, namely, BOK (MEC.B7.SigOVA: expressing H-2K^b, OVAp and B7.1, were used as antigen-presenting cells to stimulate naive OT-I cells according to known techniques.
Evaluation of Secondary Antigen-Recall Responses In Vitro. For studying secondary antigen-recall response in vitro; OT-I cells harvested at 72 hr (primary) were washed thrice with medium and recultured (1×10^5/ml) for an additional 72 hr in a 24-well plate with IL-7 (10 ng/ml) only. At 144 hr the cells were harvested, washed thrice with medium, had numbers adjusted (5×10^5), and were restimulated with Ag/B7.1 only for an additional 24 hr (secondary stimulation). At 168 hr, the cells recovered were evaluated by flow cytometry and in vitro functional assay.
Because the presence of IL-12 during antigen stimulation augments mTOR activity and is deterministic for type I effector maturation, we analyzed whether sustained mTOR kinase activity is required for IL-12-programmed type I effector functions in OT-I cells. To do so, we stimulated naive OT-I cells with BOK±IL-12, and rapamycin and effector functions were analyzed from the primary and secondary activated OT-I pool. […] In addition, we observed a block in IL-12-induced IFN-γ production and CTL activity upon rapamycin treatment at 144 hr after primary stimulation.

Eomesodermin = Eomesodermin mRNA and protein expression in OT-I cells; assay type: cell-based, mouse
Procedure: FIG. 5. Inhibition of mTOR Promotes Persistent Eomes Expression and Phenotypic Markers of Memory in CD8+T Cells. (A and B) OT-I cells stimulated with Ag+B7.1 (±) IL-12 and rapamycin were evaluated for (A) mRNA for Eomes at the indicated time points by RT-PCR and (B) Eomes protein expression at 72 hr by ICS. *p<0.03. (C) OT-I cells stimulated with Ag+B7.1 (±) IL-12 and rapamycin were transduced with T-bet-ER retroviral vector (±) 4-HT (10 nM) and evaluated for Eomes protein expression at 96 hr. (D) OT-I cells stimulated with Ag+B7.1 (±) IL-12 and rapamycin were evaluated for CD62L, CD69, KLRG1, CD127, and CD122 expression at 72 hr. (E) Bcl-2 and Bcl-3 mRNA expression at the indicated time points. (F and G) OT-I cells stimulated with Ag+B7.1 (±) IL-12 and rapamycin for 72 hr were washed twice and rested for an additional 72 hr in the presence of (F) IL-7 (10 ng/ml), *p<0.02, and (G) IL-15 (10 ng/ml). *p<0.02 and percent (%) cell recovery was calculated at 144 hr. […]
The closely related transcription factors T-bet and Eomesodermin are inversely regulated in effector and memory CD8^+T cells. To determine whether mTOR inhibition, which curtailed T-bet expression, led to induction of Eomesodermin, we systematically analyzed Eomesodermin mRNA expression in OT-I cells. […] We also determined whether IFN-α could also regulate mTOR activity and T-bet expression in OT-I cells.

[1] = IFN-α, Ag+B7.1-stimulated OT-I cells

Molecule | IFN-γ production (OT-I cells; [1]) | Eomesodermin expression (Eomesodermin; [1]) | IFN-γ production and CTL activity (OT-I cells; IL-12 added to BOK-stimulated OT-I cells, 72 hr) | Eomesodermin expression (Eomesodermin; IL-12 addition to Ag+B7.1 stimulation)
IFN-α | increases | increases |  | 
B1 |  |  | robust | reduced
